According to patent US10555535B2, “Pest control composition and pest control method” (SUMITOMO CHEMICAL COMPANY, LIMITED, priority 2015, dated 2020):

What was measured:
Aphis gossypii = experiment: Test Example 12: treated soybean seeds, controlling effect on Aphis gossypii; format: in vivo
Procedure: In a rotary seed treatment machine (trade name: HEGE11, manufactured by WINTERSTEIGER), soybean seeds (variety:“Hatayutaka”) were treated by smearing treatment using flowable formulation of the present bacterial strain obtained in Formulation Example 14, flupyradifurone liquid formulation (20.0% liquid formulation, trade name: SIVANTO200, Bayer CropScience), thiacloprid flowable formulation (40.0% flowable formulation, trade name: Sonido, Bayer CropScience), thiamethoxam flowable formulation (47.6% flowable formulation, trade name: Cruiser 5FS, Syngenta Crop Protection LCC), so that the soybean seeds retain the present bacterial strain and the compound in the amount shown in Table 5.
Twenty Aphis gossypii were released on the 14th day after the seeding, and the number of living Aphis gossypii was counted on the 5th day after the release. Similar procedures were conducted using untreated soybean seeds, instead of the treated soybean seeds, as described above for the treated compartment (“untreated compartment”).
(§1) Based on the numbers of survivors in the treated compartment and the untreated compartment, the effect in the treated compartment was calculated by the following equation. Controlling effect=100×[(number of survivors in untreated compartment−number of survivors in treated compartment)/number of survivors in untreated compartment]
(§2) If the effect by the combination of two active ingredients is greater than that of the estimated value E, which is calculated by the Colby's equation as follows, the effect is regarded as synergistic. E=X+Y−X·Y/100 wherein, • E=Controlling effect when using the mixture of the active ingredients A and B at the concentrations m and n (amount of the active ingredient), respectively. • X=Controlling effect when using the active ingredient A at the concentration m (amount of the active ingredient). • Y=Controlling effect when using the active ingredient B at the concentration n (amount of the active ingredient).

[1] = system: Diabrotica virgifera virgifera; experiment: Test Example 13: treated corn seeds, controlling effect on Diabrotica virgifera virgifera larvae; format: in vivo
Procedure: as §2
In a rotary seed treatment machine (trade name: HEGE11, manufactured by WINTERSTEIGER), corn seeds (variety: yellow dent corn) were treated by smearing treatment using the wettable powder of the present bacterial strain obtained in Formulation Example 13 or clothianidin flowable formulation (47.8% flowable formulation, trade name: NipsIt Inside Insecticide, Valent U.S.A. Corporation), or imidacloprid flowable formulation (48.7% flowable formulation, trade name: Gaucho 600, Bayer CropScience), so that the corn seeds thus treated retain the present bacterial strain, clothianidin or imidacloprid in the amount shown in Table 6.
In a rotary seed treatment machine (trade name: HEGE11, manufactured by WINTERSTEIGER), the corn seeds thus treated with clothianidin or imidacloprid were treated by wet powder coating with a wettable powder of the present bacterial strain as obtained in Formulation Example 13, so that the […] thus treated retain the present bacterial strain and clothianidin or the present bacterial strain and imidacloprid in the amount shown in Table 6.
Newly hatched larvae of Diabrotica virgifera virgifera are released (10 for each stalk of corn) on the 7th day after the seeding, and the number of living Diabrotica virgifera virgifera was counted on the 10th day after the release. Similar procedures were conducted using untreated corn seeds, instead of the treated corn seeds, as described above for the treated compartment (“untreated compartment”).
as §1, with “compartment number” for “compartment−number”

With `N#C/N=C1\SCCN1Cc1ccc(Cl)nc1` [Thiacloprid, thiacloprid] the “Controlling Effect” value (Aphis gossypii; soybean seeds retaining 0.3 g /Kg seeds) was 56.9 and the “Controlling Effect” value (Aphis gossypii; soybean seeds retaining 0.45 g /Kg seeds) was 69.0.

In the case of `CN/C(=N\[N+](=O)[O-])NCc1cnc(Cl)s1` [Clothianidin, clothianidin], the “Controlling Effect” value ([1]; corn seeds retaining 0.6 g /Kg seeds) is reported as 41.4 and the “Controlling Effect” value ([1]; corn seeds retaining 1.2 g /Kg seeds) is reported as 64.3.

With `O=C1C=C(N(Cc2ccc(Cl)nc2)CC(F)F)CO1` [Flupyradifurone, flupyradifurone] the “Controlling Effect” value (Aphis gossypii; soybean seeds retaining 0.2 g /Kg seeds) was 65.9 and the “Controlling Effect” value (Aphis gossypii; soybean seeds retaining 0.4 g /Kg seeds) was 77.6.

For `O=[N+]([O-])NC1=NCCN1Cc1ccc(Cl)nc1` [Imidacloprid, imidacloprid], the “Controlling Effect” value ([1]; corn seeds retaining 2.0 g /Kg seeds) was 51.4 and the “Controlling Effect” value ([1]; corn seeds retaining 2.5 g /Kg seeds) was 62.8.

`CN1COCN(Cc2cnc(Cl)s2)/C1=N\[N+](=O)[O-]` [Thiamethoxam, thiamethoxam] was tested, and the “Controlling Effect” value (Aphis gossypii; soybean seeds retaining 0.15 g /Kg seeds) was 70.6 and the “Controlling Effect” value (Aphis gossypii; soybean seeds retaining 0.25 g /Kg seeds) was 78.4.
